± gives the expanded uncertainty stated by the source.
Details: Crystal; DTA

Structure (SMILES): Nc1ccc(O)c2c1C(=O)c1c(O)cc(Br)c(N)c1C2=O [1,5-diaminobromo-4,8-dihydroxyanthraquinone]
- Triple point temperature: 453.4 ± 1.1 K

Reference: the NIST ThermoML archive (doi:10.1021/je800646h)
